{"source": "patent US20150335677A1", "about": "“Argon is a mu opioid receptor antagonist” (priority 2014, published 2015)", "key": {"[1]": {"molecular_target": "T1, type 2 vesicular monoamine transporter (Rattus norvegicus, UniProt Q01827)", "T1 construct": "Coronal brain slices (400 μm thickness) including the nucleus accumbens; from tissue; host or cells: rat nucleus accumbens brain slices", "T1 sequence (Q01827 whole entry)": "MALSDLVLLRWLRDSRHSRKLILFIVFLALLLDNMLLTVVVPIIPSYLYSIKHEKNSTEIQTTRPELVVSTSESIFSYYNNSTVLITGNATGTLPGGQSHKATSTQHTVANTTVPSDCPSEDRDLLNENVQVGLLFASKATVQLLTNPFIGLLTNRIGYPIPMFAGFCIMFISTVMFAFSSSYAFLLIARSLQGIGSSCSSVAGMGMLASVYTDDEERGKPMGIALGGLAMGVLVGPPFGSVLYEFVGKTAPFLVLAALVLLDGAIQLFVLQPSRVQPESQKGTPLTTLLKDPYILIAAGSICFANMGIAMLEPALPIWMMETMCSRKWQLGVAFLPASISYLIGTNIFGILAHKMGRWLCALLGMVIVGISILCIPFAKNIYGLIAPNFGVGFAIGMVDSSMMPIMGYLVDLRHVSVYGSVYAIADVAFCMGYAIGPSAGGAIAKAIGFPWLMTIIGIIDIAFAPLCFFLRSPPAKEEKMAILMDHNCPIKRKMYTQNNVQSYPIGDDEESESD", "assay": "Carrier-mediated and KCl-evoked dopamine release in nucleus accumbens brain slices with amphetamine", "assay_type": "cell-based", "method": "Rats were killed by decapitation and the brains were carefully removed and placed in ice-cold artificial cerebrospinal fluid (aCSF). Coronal brain slices (400 μm thickness) including the nucleus accumbens (anteriority: −1.2 to +2 mm from the bregma) were cut using a tissue chopper. Before being used, brain slices (n=4 per condition) were allowed to recover at room temperature for 1 hour in oxygenated a CSF. […] Control slices were treated with saline solution and air. Carrier-mediated and depolarization-dependent (KCl: 100 mM) dopamine release in the nucleus accumbens were monitored using a polarograph and standard glass-encased nafion-precoated carbon fiber electrodes (David H. N. et al., Biol. Psych., 2006). […] Therefore, in the experiments with argon, argon was only administered after Peak 1 (P1) KCl-evoked dopamine release had returned to baseline (B2)."}, "Sprague-Dawley rats [2]": {"system": "Sprague-Dawley rats", "assay": "Stress level: righting reflex when handled abdomen side up", "assay_type": "in vivo, rat", "settings": "argon 75 vol % 3 h day 1 to day 3 vs air; recorded after treatment on days 1 to 3 and on day 7; P<0.05", "method": "(§1) In a first series of experiments, male adult Sprague-Dawley rats (n=6 per group) were treated for 3 h from day 1 to day 3 with ‘medical’ air (composed of 75 vol % nitrogen and 25 vol % oxygen) or argon at 75 vol % (with the remainder being oxygen) at a flow rate of 5 L/min in a closed chamber. None of the animals were habituated to handling with their abdomen side up. Immediately after being treated with either air or argon from day 1 to day 3, and on day 7, rats were handled by an experimenter blind of the rats' gas treatment, with their back placed in the palm of the experimenter and their abdomen side up. The rat's stress level was rated both by the experimenter and an additional observer, also blind of the rats' gas treatment, by counting the number of righting reflex of the animals during a 1-min period on a scale of 0 to 3 with 0 being a total absence of righting reflex and 3 being repetitive righting reflexes. Then, the rats' social interaction was also evaluated. The animals were placed by group of 2 in an open field measuring 90 cm×90 cm for a 10-min period, and the time spent by the animals at a distance comprised between 2 and 5 cm was recorded and taken as a behavioral marker of social interaction."}, "Sprague-Dawley rats [3]": {"system": "Sprague-Dawley rats", "assay": "Social interaction in open field", "assay_type": "in vivo, rat", "settings": "argon 75 vol % 3 h day 1 to day 3 vs air; recorded after treatment on days 1 to 3 and on day 7; P<0.05", "method": "as §1"}, "[4]": {"settings": "normobaric and hyperbaric pressures of 1 to 4 atmospheres absolute; cited from earlier work"}, "Sprague-Dawley rats [5]": {"system": "Sprague-Dawley rats", "assay": "Time in central area of open field after electric shock conditioning", "assay_type": "in vivo, rat", "settings": "argon 75 vol % 3 h day 4 to day 6 vs air; recorded on days 4 to 6 and on day 8; P<0.05", "method": "In a second series of experiments, from day 1 to day 3, additional male Sprague-Dawley rats (n=6 per group) were placed for 10 min in an open field measuring 90 cm×90 cm, which central area measuring 50 cm×50 cm was equipped for delivering an electric shock to the animals that stayed more than 5 s in the area. From day 4 to day 6, the animals were treated for 3 h with medical air or argon at 75 vol % at a flow rate of 5 L/min in a closed chamber. Immediately after being treated with either air or argon from day 4 to day 6, and on day 8, rats were placed in the open field, and recorded during a 10-min period for the time that they spent in the central area whose electrical circuit was switched off."}, "[6]": {"system": "spontaneously hypertensive rats", "assay": "Locomotor activity in spontaneously hypertensive rats (ADHD model)", "assay_type": "in vivo, rat", "settings": "argon 75 vol % 3 h daily day 1 to day 3 vs medical air; recorded on day 7; P<0.02", "method": "Male spontaneously hypertensive rats (n=7-8 per group), known to show spontaneous locomotor hyperactivity and used as a model for the attention deficit and hyperactivity disorder (ADHD), were treated daily from day 1 to day 3 for 3 h with ‘medical’ air (composed of 75 vol % nitrogen and 25 vol % oxygen) or argon at 75 vol % (with the remainder being oxygen) at a flow rate of 5 L/min in a closed chamber. On day 7, rats were habituated to the activity boxes for 1 h before being recorded for locomotor activity for 1 h 30 min as detailed previously (David et al., Neuropharmacol., 2004)."}, "mu opioid receptor": {"molecular_target": "T2, mu opioid receptor (Rattus norvegicus, UniProt P33535)", "T2 construct": "Membrane preparations were obtained from whole brains of rats untreated (n=4); from tissue; host or cells: rat whole brain membranes", "T2 sequence (P33535 whole entry)": "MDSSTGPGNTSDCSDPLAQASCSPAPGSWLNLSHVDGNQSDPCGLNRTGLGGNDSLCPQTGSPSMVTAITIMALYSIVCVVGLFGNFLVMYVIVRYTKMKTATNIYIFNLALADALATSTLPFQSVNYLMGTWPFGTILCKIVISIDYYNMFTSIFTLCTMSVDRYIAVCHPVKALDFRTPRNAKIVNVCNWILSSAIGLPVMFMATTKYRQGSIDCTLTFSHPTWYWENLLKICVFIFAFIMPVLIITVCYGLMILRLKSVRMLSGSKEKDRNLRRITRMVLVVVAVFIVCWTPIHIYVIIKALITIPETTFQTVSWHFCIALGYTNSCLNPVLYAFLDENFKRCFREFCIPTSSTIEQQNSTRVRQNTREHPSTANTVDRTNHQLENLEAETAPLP", "assay": "[3H]-DAMGO binding in rat whole-brain membrane protein preparations", "settings": "100 vol % argon compared to 100 vol % nitrogen", "method": "Membrane preparations were obtained from whole brains of rats untreated (n=4). The brains were crushed and homogenized in TRIS-HCl 50 mM buffer. After centrifugation, the bases of the vials were suspended in the same volume of TRIS-HCl buffer (×2). When the membrane preparation was obtained, the proteins were quantified to prepare in fine a solution at 1 mg/ml. Proteins were quantified using a BCA protein assay. Then, binding studies were performed as follows: solutions to allow calculating total binding were prepared by adding 385 μL of a TRIS-HCl buffer to 330 μL of proteins and 385 μL of [^3H]-DAMGO at decreasing concentrations (n=2 per dose, N=12). Solutions to allow calculating non-specific binding were prepared in the same fashion with naloxone instead of buffer. The vials containing these solutions were left open and placed in a closed chamber to allow saturating the solutions with 100 vol % nitrogen or argon. 1000 μL of each vial were placed in a 24-well plate coated with polyethylenimine. After drying, 100 μL scintillant was added to allow counting radioactivity (×3). Specific binding was obtained by subtracting non-specific binding to total binding, and Bmax, Kd, and Bmax×1/Kd (mu receptor activity) were calculated."}, "[7]": {"system": "type A γ-aminobutyric acid (GABA) and benzodiazepine receptors", "settings": "pressure of around 15 atmospheres absolute; cited from earlier work"}}, "data": [{"smiles": "[Ar]", "note": "[argon]", "values": [{"measurement": "effect on Peak 2 KCl-evoked dopamine release", "setting": "[1]; amphetamine in the presence of air or argon, KCl 100 mM", "value": "lack of effect"}, {"measurement": "effect on amphetamine-induced reduction in Peak 3 (P3) KCl-evoked dopamine release", "setting": "[1]; argon 75 vol % vs air, with amphetamine, KCl 100 mM, P<0.02", "value": "further potentiates the reduction"}, {"measurement": "effect on amphetamine-induced increase in carrier-mediated dopamine release", "setting": "[1]; argon 75 vol % vs air, with amphetamine, rat nucleus accumbens slices, P<0.02", "value": "decreases the facilitating action of amphetamine"}, {"measurement": "number of righting reflex when handled abdomen side up", "setting": "Sprague-Dawley rats [2]", "value": "reduced number of righting reflex"}, {"measurement": "social interactions", "setting": "Sprague-Dawley rats [3]", "value": "increased number of social interactions"}, {"measurement": "side effects of breathing argon", "setting": "[4]", "value": "no or minimal side effect"}, {"measurement": "time spent in central area of the open field", "setting": "Sprague-Dawley rats [5]", "value": "penetrated the central area of the open field to a greater extent"}, {"measurement": "locomotor activity", "setting": "[6]", "value": "lower locomotor activity"}, {"measurement": "1/Kd (affinity) of DAMGO binding", "setting": "mu opioid receptor", "value": "trend toward reduction"}, {"measurement": "decrease in mu receptor activity (Bmax×1/Kd)", "setting": "mu opioid receptor; P<0.05", "value": 60, "unit": "%"}, {"measurement": "decrease of Bmax (number of receptors) of DAMGO binding", "setting": "mu opioid receptor; membrane protein preparations", "value": 15, "unit": "%"}, {"measurement": "action at type A GABA and benzodiazepine receptors", "setting": "[7]", "value": "acts as an agonist"}]}]}
